Measurements from patent US20230365585A1, “BENZODIAZEPINE DERIVATIVES USEFUL IN TREATING A RESPIRATORY SYNCYTIAL VIRUS INFECTION” (priority 2020, published 2023).

Columns and labels:
RSV A2 = test: RSV plaque reduction assay; assay type: cell-based, RSV (RSV A2 ECACC, 0709161v); conditions: human respiratory syncytial virus, HepG2, 48 h, Hep-G2 cells, RSV A2, 2 days; mean of at least two experiments
Experimental: Compounds were subjected to RSV plaque reduction assays according to the following protocol.
Hep-G2 cells (ECACC, 85011430) were passaged in flasks and seeded in 24-well plates in DMEM containing antibiotics and supplemented with 10% FBS. During inoculation and subsequent incubation, cells were cultured in DMEM containing 2% FBS. 100 plaque forming unit/well of RSV (RSV A2 ECACC, 0709161v) was mixed with eight serial dilutions of compound. Subsequently, 100 µL of the virus/compound mixtures was added to confluent Hep-G2 cell monolayers. The cells and virus/compound mixtures were incubated at 37° C. in a humidified 5% CO2 incubator for 2 h prior to removal of the inoculum and addition of 1 mL of overlay (DMEM containing 2% FBS and 0.8% CMC) containing compound dilutions. The cells and were incubated at 37° C. in a humidified 5% CO2 incubator for 2 days.
Cells were washed with PBS before adding 75%/25% v/v EtOH/MeOH, for 3 min. Fix ative was removed and plates were washed with PBS. A pre-titrated amount of the primary antibody was added in 200 µL PBS/2% milk powder, and plates incubated for 90 min at 37° C. The plates were washed 3 times with PBS/0.05% Tween20 before addition of rabbit anti-goat horse radish peroxidase in 200 µL PBS/2% milk powder, and incubated for 1 h at 37° C. Following three wash steps with PBS/0.05% Tween20, 200 µL ready-to-use TrueBlue was added and plates were incubated at rt for 10-15 min before washing with water. After removal of water, plates were air-dried in the dark.
(§1) Plates were scanned and analysed using the Immunospot S6 Macro analyser, which is equipped with BioSpot analysis software for counting immunostained plaques (virospots). Plaque counts were used to calculate % infection relative to the mean of the plaque count in the virus control wells for RSV. […] Plaque EC50 and cell toxicity CC50 values are a mean of at least two experiments and figures are rounded to whole units.

Cell cytotoxicity CC50 = assay type: cell-based; conditions: human; mean of at least two experiments
Description: as §1

O=C(N[C@H]1N=C(c2ccccc2)c2ccccc2NC1=O)c1c(-c2ccccc2)nn2c1OCCCC2 [Example 1, N-[(3S)-2-oxo-5-phenyl-1,3-dihydro-1,4-benzodiazepin-3-yl]-2-phenyl-5,6,7,8-tetrahydropyrazolo[5,1-b][1,3]oxazepine-3-carboxamide]
EC50 (RSV A2): 79 nM | CC50 (Cell cytotoxicity CC50): > 25000 nM

CCNc1ccc(-c2nn3c(c2C(=O)N[C@H]2N=C(c4ccccc4)c4cccc(F)c4NC2=O)OC(C)CCC3)c(F)n1 (single isomer, unassigned) [Example 11-2, (5S*)-2-[6-(ethylamino)-2-fluoropyridin-3-yl]-N-[(3S)-9-fluoro-2-oxo-5-phenyl-1,3-dihydro-1,4-benzodiazepin-3-yl]-5-methyl-5,6,7,8-tetrahydropyrazolo[5,1-b][1,3]oxazepine-3-carboxamide]
EC50 (RSV A2): 9 nM | CC50 (Cell cytotoxicity CC50): > 25000 nM

O=C(N[C@H]1N=C(c2ccccc2)c2cccc(F)c2NC1=O)c1c(-c2ccccc2)nn2c1OCCCC2 [Example 8, N-[(3S)-9-Fluoro-2-oxo-5-phenyl-1,3-dihydro-1,4-benzodiazepin-3-yl]-2-phenyl-5,6,7,8-tetrahydropyrazolo[5,1-b][1,3]oxazepine-3-carboxamide]
EC50 (RSV A2): 59 nM | CC50 (Cell cytotoxicity CC50): > 16700 nM

CCC1CCCn2nc(-c3ccc(C)nc3)c(C(=O)N[C@H]3N=C(c4ccccc4)c4ccccc4NC3=O)c2O1 (single isomer, unassigned) [Example 26-1, (5R*)-5-ethyl-2-(6-methylpyridin-3-yl)-N-[(3 S)-2-oxo-5-phenyl-2,3-dihydro-1H-1,4-benzodiazepin-3-yl]-5H,6H,7H,8H-pyrazolo[3,2-b][1,3]oxazepine-3-carboxamide]
EC50 (RSV A2): 314 nM | CC50 (Cell cytotoxicity CC50): > 25000 nM

CCc1ccc(-c2nn3c(c2C(=O)N[C@H]2N=C(c4ccccc4)c4cccc(F)c4NC2=O)O[C@H]2CC[C@@H]3C2)cn1 (single isomer, unassigned) [Example 30-2, (1R*,8S*)-4-(6-ethylpyridin-3-yl)-N-[(3S)-9-fluoro-2-oxo-5-phenyl-2,3-dihydro-1H-1,4-benzodiazepin-3-yl]-7-oxa-2,3-diazatricyclo[6.2.1.02,6]undeca-3,5-diene-5-carboxamide]
EC50 (RSV A2): 63 nM | CC50 (Cell cytotoxicity CC50): > 25000 nM

CC1(C)CCCn2nc(-c3ccccc3F)c(C(=O)N[C@H]3N=C(c4ccccc4)c4cccc(F)c4NC3=O)c2O1 [Example 6, N-[(3S)-9-Fluoro-2-oxo-5-phenyl-1,3-dihydro-1,4-benzodiazepin-3-yl]-2-(2-fluorophenyl)-5,5-dimethyl-7,8-dihydro-6H-pyrazolo[5,1-b][1,3]oxazepine-3-carboxamide]
EC50 (RSV A2): 78 nM | CC50 (Cell cytotoxicity CC50): > 25000 nM

CCNc1ccc(-c2nn3c(c2C(=O)N[C@H]2N=C(c4ccccc4)c4ccccc4NC2=O)OC(C)CCC3)c(F)n1 (stereo partly drawn) [Example 10, 2-[6-(Ethylamino)-2-fluoropyridin-3-yl]-5-methyl-N-[(3S)-2-oxo-5-phenyl-1,3-dihydro-1,4-benzodiazepin-3-yl]-5,6,7,8-tetrahydropyrazolo[5,1-b][1,3]oxazepine-3-carboxamide]
EC50 (RSV A2): 31 nM | CC50 (Cell cytotoxicity CC50): > 25000 nM

CC1CCCOc2c(C(=O)N[C@H]3N=C(c4ccccc4)c4cccc(F)c4NC3=O)c(-c3ccccc3F)nn21 (stereo partly drawn) [Example 15, N-[(3S)-9-fluoro-2-oxo-5-phenyl-1,3-dihydro-1,4-benzodiazepin-3-yl]-2-(2-fluorophenyl)-8-methyl-5,6,7,8-tetrahydropyrazolo[5,1-b][1,3]oxazepine-3-carboxamide]
EC50 (RSV A2): 64 nM | CC50 (Cell cytotoxicity CC50): > 25000 nM

CC(C)Nc1ccc(-c2nn3c(c2C(=O)N[C@H]2N=C(c4ccccc4)c4cccc(F)c4NC2=O)OCC(F)(F)CC3)cn1 [Example 23, 6,6-Difluoro-N-[(3S)-9-fluoro-2-oxo-5-phenyl-2,3-dihydro-1H-1,4-benzodiazepin-3-yl]-2-{6-[(propan-2-yl)amino]pyridin-3-yl}-5H,6H,7H,8H-pyrazolo[3,2-b][1,3]oxazepine-3-carboxamide]
EC50 (RSV A2): 52 nM | CC50 (Cell cytotoxicity CC50): > 25000 nM

O=C(N[C@H]1N=C(c2ccccc2)c2ccccc2NC1=O)c1c(-c2ccccc2F)nn2c1OCCCC2 [Example 7, 2-(2-Fluorophenyl)-N-[(3S)-2-oxo-5-phenyl-1,3-dihydro-1,4-benzodiazepin-3-yl]-5,6,7,8-tetrahydropyrazolo[5,1-b][1,3]oxazepine-3-carboxamide]
EC50 (RSV A2): 52 nM | CC50 (Cell cytotoxicity CC50): > 25000 nM

O=C(N[C@H]1N=C(c2ccccc2)c2cccc(F)c2NC1=O)c1c(-c2ccccc2F)nn2c1SCCCC2 [Example 20, N-[(3S)-9-fluoro-2-oxo-5-phenyl-2,3-dihydro-1H-1,4-benzodiazepin-3-yl]-2-(2-fluorophenyl)-5H,6H,7H,8H-pyrazolo[3,2-b][1,3]thiazepine-3-carboxamide]
EC50 (RSV A2): 34 nM | CC50 (Cell cytotoxicity CC50): > 25000 nM

CC1(C)CCCn2nc(-c3ccccc3F)c(C(=O)N[C@H]3N=C(c4ccccc4)c4ccccc4NC3=O)c2O1 [Example 5, 2-(2-Fluorophenyl)-5,5-dimethyl-N-[(3S)-2-oxo-5-phenyl-1,3-dihydro-1,4-benzodiazepin-3-yl]-7,8-dihydro-6H-pyrazolo[5,1-b][1,3]oxazepine-3-carboxamide]
EC50 (RSV A2): 91 nM | CC50 (Cell cytotoxicity CC50): > 25000 nM

CC1CCCOc2c(C(=O)NC3N=C(c4ccccc4)c4cccc(F)c4NC3=O)c(-c3ccccc3F)nn21 (single isomer, unassigned) [Example 15-1, (8R*)-N-(9-fluoro-2-oxo-5-phenyl-1,3-dihydro-1,4-benzodiazepin-3-yl)-2-(2-fluorophenyl)-8-methyl-5,6,7,8-tetrahydropyrazolo[5,1-b][1,3]oxazepine-3-carboxamide]
EC50 (RSV A2): 47 nM | CC50 (Cell cytotoxicity CC50): > 25000 nM

CCNc1ccc(-c2nn3c(c2C(=O)N[C@H]2N=C(c4ccccc4)c4cccc(F)c4NC2=O)O[C@H](C)CCC3)c(F)n1 (single isomer, unassigned) [Example 11-1]
EC50 (RSV A2): 22 nM | CC50 (Cell cytotoxicity CC50): > 25000 nM

CCC1CCCn2nc(-c3ccc(C)nc3)c(C(=O)N[C@H]3N=C(c4ccccc4)c4ccccc4NC3=O)c2O1 (stereo partly drawn) [Example 26, 5-Ethyl-2-(6-methylpyridin-3-yl)-N-[(3S)-2-oxo-5-phenyl-1,3-dihydro-1,4-benzodiazepin-3-yl]-5,6,7,8-tetrahydropyrazolo[5,1-b][1,3]oxazepine-3-carboxamide]
EC50 (RSV A2): 590 nM | CC50 (Cell cytotoxicity CC50): > 25000 nM

CCNc1ccc(-c2nn3c(c2C(=O)N[C@H]2N=C(c4ccccc4)c4ccccc4NC2=O)OC(C)CCC3)c(F)n1 (single isomer, unassigned) [Example 10-1, (5R*)-2-[6-(ethylamino)-2-fluoropyridin-3-yl]-5-methyl-N-[(3S)-2-oxo-5-phenyl-1,3-dihydro-1,4-benzodiazepin-3-yl]-5,6,7,8-tetrahydropyrazolo[5,1-b][1,3]oxazepine-3-carboxamide]
EC50 (RSV A2): 26 nM | CC50 (Cell cytotoxicity CC50): > 25000 nM

Cc1cncc(-c2nn3c(c2C(=O)N[C@H]2N=C(c4ccccc4)c4cccc(F)c4NC2=O)OCCCC3)c1 [Example 4, N-[(3S)-9-Fluoro-2-oxo-5-phenyl-1,3-dihydro-1,4-benzodiazepin-3-yl]-2-(5-methylpyridin-3-yl)-5,6,7,8-tetrahydropyrazolo[5,1-b][1,3]oxazepine-3-carboxamide]
EC50 (RSV A2): 219 nM | CC50 (Cell cytotoxicity CC50): > 25000 nM

CCC1CCCn2nc(-c3ccccc3F)c(C(=O)N[C@H]3N=C(c4ccccc4)c4cccc(F)c4NC3=O)c2O1 (single isomer, unassigned) [Example 25-1, (5R*)-5-ethyl-2-(2-fluorophenyl)-N-[(3S)-9-fluoro-2-oxo-5-phenyl-1,3-dihydro-1,4-benzodiazepin-3-yl]-5,6,7,8-tetrahydropyrazolo[5,1-b][1,3]oxazepine-3-carboxamide]
EC50 (RSV A2): 93 nM | CC50 (Cell cytotoxicity CC50): > 25000 nM

CC(C)Nc1ccc(-c2nn3c(c2C(=O)N[C@H]2N=C(c4ccccc4)c4cccc(F)c4NC2=O)OC(C)CCC3)c(F)n1 (stereo partly drawn) [Example 13, N-[(3S)-9-fluoro-2-oxo-5-phenyl-1,3-dihydro-1,4-benzodiazepin-3-yl]-2-[2-fluoro-6-(propan-2-ylamino)pyridin-3-yl]-5-methyl-5,6,7,8-tetrahydropyrazolo[5,1-b][1,3]oxazepine-3-carboxamide]
EC50 (RSV A2): 34 nM | CC50 (Cell cytotoxicity CC50): > 25000 nM

CCNc1ccc(-c2nn3c(c2C(=O)N[C@H]2N=C(c4ccccc4)c4cccc(F)c4NC2=O)OC(C)CCC3)c(F)n1 (stereo partly drawn) [Example 11, 2-[6-(Ethylamino)-2-fluoropyridin-3-yl]-N-[(3S)-9-fluoro-2-oxo-5-phenyl-1,3-dihydro-1,4-benzodiazepin-3-yl]-5-methyl-5,6,7,8-tetrahydropyrazolo[5,1-b][1,3]oxazepine-3-carboxamide]
EC50 (RSV A2): 18 nM | CC50 (Cell cytotoxicity CC50): > 25000 nM
